According to ChEMBL document CHEMBL5046281, “N-Aryl Mercaptopropionamides as Broad-Spectrum Inhibitors of Metallo-β-Lactamases” (J Med Chem, 2022):
Activity calls are given as the source filed them. The rule behind the calls is not given here.

How the values were obtained:
[1] = Inhibition of Escherichia coli IMP-7 using fluorocillin as substrate incubated for 30 mins by fluorescence based assay
Klebsiella pneumoniae [2] = experiment: Synergistic antibacterial activity against NDM-1-producing Klebsiella pneumoniae T2301 clinical isolate assessed as fractional inhibitory concentration index in presence of imipenem by microdilution checkerboard assay; assay type: functional
[3] = Selectivity ratio of MIC for antibacterial activity against KPC-2 producing Escherichia coli T2435 clinical isolates to MIC for potentiation of imipenem-induced antibacterial activity against KPC-2 producing Escherichia coli T2435 clinical isolates assessed as imipenem MIC at 128 mg/l; assay type: functional
Escherichia coli [4] = experiment: Potentiation of imipenem-induced antibacterial activity against NDM-7 producing Escherichia coli T2239 clinical isolates assessed as imipenem MIC at 128 mg/l by microdilution method; assay type: functional
[5] = Selectivity ratio of MIC for antibacterial activity against NDM-7 producing Escherichia coli T2239 clinical isolates to MIC for potentiation of imipenem-induced antibacterial activity against NDM-7 producing Escherichia coli T2239 clinical isolates assessed as imipenem MIC at 128 mg/l; assay type: functional
HEK293 = experiment: Cytotoxicity against human HEK293 cells assessed as reduction in cell viability at 100 uM relative to control; assay type: toxicity, cell-based; settings: hek293, 100 µM
Escherichia coli [6] = experiment: Potentiation of imipenem-induced antibacterial activity against NDM-1 producing Escherichia coli assessed as imipenem MIC at 2 ug/ml by microdilution method (reference value: 128 ug/ml); assay type: functional; settings: dose 2 µg/ml
Pseudomonas aeruginosa [7] = experiment: Inhibition of Pseudomonas aeruginosa quorum sensing system LasB at 100 uM
Klebsiella pneumoniae [8] = experiment: Antibacterial activity against imipenem-resistant NDM-1-producing Klebsiella pneumoniae T2301 infected in Galleria mellonella larvae assessed as survival rate at 38.4 ug injected via proleg measured after 3 days in presence of imipenem by Kaplan-Meier method; assay type: functional; settings: dose 38.4 µg; time 3 day
Escherichia coli [9] = experiment: Potentiation of imipenem-induced antibacterial activity against NDM-1 producing Escherichia coli assessed as imipenem MIC at 8 ug/ml by microdilution method (reference value: 128 ug/ml); assay type: functional; settings: dose 8 µg/ml
Klebsiella pneumoniae [10] = experiment: Antibacterial activity against imipenem-resistant NDM-1-producing Klebsiella pneumoniae T2301 at 128 mg/L measured after 24 hrs in presence of imipenem by time-kill assay; assay type: functional, organism-based
[11] = molecular target: Disintegrin and metalloproteinase domain-containing protein 17 (Homo sapiens) (UniProt P78536); experiment: Inhibition of human TACE at 100 uM relative to control
Chain of Disintegrin and metalloproteinase domain-containing protein 17 (Homo sapiens) (P78536 whole entry, the tested form may be a part): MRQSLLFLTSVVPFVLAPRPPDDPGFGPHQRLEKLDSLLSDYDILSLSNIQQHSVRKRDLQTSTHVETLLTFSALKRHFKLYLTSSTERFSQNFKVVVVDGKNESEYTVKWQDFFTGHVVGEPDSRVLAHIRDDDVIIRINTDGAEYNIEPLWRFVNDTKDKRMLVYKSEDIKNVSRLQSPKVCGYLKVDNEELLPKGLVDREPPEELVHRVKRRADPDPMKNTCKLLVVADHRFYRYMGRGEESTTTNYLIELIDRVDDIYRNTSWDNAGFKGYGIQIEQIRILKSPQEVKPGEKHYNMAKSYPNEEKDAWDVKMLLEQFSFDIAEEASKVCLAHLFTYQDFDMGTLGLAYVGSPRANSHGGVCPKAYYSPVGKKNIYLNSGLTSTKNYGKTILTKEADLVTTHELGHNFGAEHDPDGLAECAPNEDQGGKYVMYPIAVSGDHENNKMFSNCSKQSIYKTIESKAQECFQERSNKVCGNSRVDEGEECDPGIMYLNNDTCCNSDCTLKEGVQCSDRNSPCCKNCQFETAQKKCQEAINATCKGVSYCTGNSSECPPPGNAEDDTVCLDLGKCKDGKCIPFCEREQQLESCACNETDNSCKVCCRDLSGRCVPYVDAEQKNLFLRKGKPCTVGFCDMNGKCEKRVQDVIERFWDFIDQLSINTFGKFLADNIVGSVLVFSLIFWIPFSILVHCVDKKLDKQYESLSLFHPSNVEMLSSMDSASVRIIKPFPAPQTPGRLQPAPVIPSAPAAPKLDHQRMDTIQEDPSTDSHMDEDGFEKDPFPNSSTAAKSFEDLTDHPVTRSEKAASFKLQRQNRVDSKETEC

Escherichia coli [12] = experiment: Antibacterial activity against IMP-1 expressing Escherichia coli isolates assessed as inhibition of bacterial growth by microdilution method; assay type: functional, organism-based
Escherichia coli [13] = experiment: Potentiation of imipenem-induced antibacterial activity against NDM-5 producing Escherichia coli T2351 clinical isolates assessed as imipenem MIC at 128 mg/l by microdilution method; assay type: functional
Escherichia coli [14] = experiment: Potentiation of imipenem-induced antibacterial activity against NDM-1 producing Escherichia coli assessed as fold change in imipenem MIC at 32 ug/ml by microdilution method; assay type: functional; settings: dose 32 µg/ml
Serratia marcescens = experiment: Potentiation of imipenem-induced antibacterial activity against NDM-1 producing Serratia marcescens T2352 clinical isolates assessed as imipenem MIC at 128 mg/l by microdilution method; assay type: functional
Klebsiella pneumoniae [15] = experiment: Antibacterial activity against imipenem-resistant NDM-1-producing Klebsiella pneumoniae T2301 at 128 mg/L measured after 24 hrs by time-kill assay; assay type: functional, organism-based
Escherichia coli [16] = experiment: Potentiation of imipenem-induced antibacterial activity against NDM-1 producing Escherichia coli assessed as imipenem MIC at 4 ug/ml by microdilution method (reference value: 128 ug/ml); assay type: functional; settings: dose 4 µg/ml
[17] = Selectivity ratio of MIC for antibacterial activity against NDM-1 producing Enterobacter cloacae T2311 clinical isolates to MIC for potentiation of imipenem-induced antibacterial activity against NDM-1 producing Enterobacter cloacae T2311 clinical isolates assessed as imipenem MIC at 128 mg/l; assay type: functional
Escherichia coli [18] = experiment: Potentiation of imipenem-induced antibacterial activity against NDM-1 producing Escherichia coli assessed as fold change in imipenem MIC at 64 ug/ml by microdilution method; assay type: functional; settings: dose 64 µg/ml
HepG2 = experiment: Cytotoxicity against human HepG2 cells assessed as reduction in cell viability at 100 uM relative to control; assay type: toxicity, cell-based; settings: hepg2, 100 µM
[19] = Selectivity ratio of MIC for antibacterial activity against NDM-5 producing Escherichia coli T2351 clinical isolates to MIC for potentiation of imipenem-induced antibacterial activity against NDM-5 producing Escherichia coli T2351 clinical isolates assessed as imipenem MIC at 128 mg/l; assay type: functional
Enterobacter cloacae [20] = experiment: Potentiation of imipenem-induced antibacterial activity against VIM-1 producing Enterobacter cloacae T2353 clinical isolates assessed as imipenem MIC at 128 mg/l by microdilution method; assay type: functional
Pseudomonas aeruginosa [21] = experiment: Antibacterial activity against VIM-2 expressing Pseudomonas aeruginosa isolates assessed as inhibition of bacterial growth by microdilution method; assay type: functional, organism-based
Escherichia coli [22] = experiment: Potentiation of imipenem-induced antibacterial activity against NDM-1 producing Escherichia coli assessed as fold change in imipenem MIC at 128 ug/ml by microdilution method; assay type: functional; settings: dose 128 µg/ml
[23] = molecular target: T1, Matrilysin (Homo sapiens) (UniProt P09237); experiment: Inhibition of human MMP-7 at 100 uM relative to control
T1 sequence (whole entry): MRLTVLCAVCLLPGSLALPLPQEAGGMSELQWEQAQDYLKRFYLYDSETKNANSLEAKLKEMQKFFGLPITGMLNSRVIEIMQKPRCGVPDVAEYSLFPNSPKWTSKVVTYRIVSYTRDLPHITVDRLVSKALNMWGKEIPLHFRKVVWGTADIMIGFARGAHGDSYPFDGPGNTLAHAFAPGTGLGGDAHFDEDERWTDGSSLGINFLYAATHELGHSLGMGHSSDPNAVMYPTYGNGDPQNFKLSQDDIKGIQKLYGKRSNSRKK

[24] = molecular target: 72 kDa type IV collagenase (Homo sapiens, UniProt P08253); experiment: Inhibition of human MMP-2 at 100 uM relative to control
Chain of 72 kDa type IV collagenase (P08253 110-660 limits assumed): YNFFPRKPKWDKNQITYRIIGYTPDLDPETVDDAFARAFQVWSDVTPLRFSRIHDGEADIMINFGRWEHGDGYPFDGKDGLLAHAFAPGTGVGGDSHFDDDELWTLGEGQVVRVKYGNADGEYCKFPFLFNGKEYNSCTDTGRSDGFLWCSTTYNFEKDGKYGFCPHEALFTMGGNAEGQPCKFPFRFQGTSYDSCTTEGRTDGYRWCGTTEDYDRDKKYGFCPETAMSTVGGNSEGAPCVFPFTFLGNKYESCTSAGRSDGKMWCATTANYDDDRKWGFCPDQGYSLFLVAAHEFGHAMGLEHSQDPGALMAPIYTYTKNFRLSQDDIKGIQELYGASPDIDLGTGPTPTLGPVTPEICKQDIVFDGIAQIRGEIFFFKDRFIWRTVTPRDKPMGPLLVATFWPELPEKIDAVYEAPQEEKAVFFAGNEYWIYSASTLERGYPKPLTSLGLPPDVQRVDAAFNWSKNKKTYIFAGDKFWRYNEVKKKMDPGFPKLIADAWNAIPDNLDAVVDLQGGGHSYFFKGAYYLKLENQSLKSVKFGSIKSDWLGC

[25] = Inhibition of Escherichia coli NDM-1 using fluorocillin as substrate incubated for 30 mins by fluorescence based assay
[26] = Selectivity ratio of MIC for antibacterial activity against IMP-1 producing Pseudomonas aeruginosa T2325 clinical isolates to MIC for potentiation of imipenem-induced antibacterial activity against IMP-1 producing Pseudomonas aeruginosa T2325 clinical isolates assessed as imipenem MIC at 128 mg/l; assay type: functional
Escherichia coli [27] = experiment: Potentiation of imipenem-induced antibacterial activity against NDM-1 producing Escherichia coli assessed as fold change in imipenem MIC at 16 ug/ml by microdilution method; assay type: functional; settings: dose 16 µg/ml
Klebsiella pneumoniae [28] = experiment: Potentiation of imipenem-induced antibacterial activity against NDM-1 producing Klebsiella pneumoniae T2301 clinical isolates assessed as imipenem MIC at 128 mg/l by microdilution method; assay type: functional
Enterobacter cloacae [29] = experiment: Potentiation of imipenem-induced antibacterial activity against NDM-1 producing Enterobacter cloacae T2311 clinical isolates assessed as imipenem MIC at 128 mg/l by microdilution method; assay type: functional

O=C(CCS)Nc1cccc(C(=O)O)c1
IC50 [1]: 6.4 µM
fractional inhibitory concentration index (FICI) (Klebsiella pneumoniae [2]): 0.25
Ratio [3]: 1
MIC (Escherichia coli [4]): 2 µg/mL
Ratio [5]: 16
Activity (HEK293): < 10%
MIC (Escherichia coli [6]): 128 µg/mL
inhibition (Pseudomonas aeruginosa [7]): Active
Activity (Klebsiella pneumoniae [8]): <=56%
MIC (Escherichia coli [9]): 64 µg/mL
Activity (Klebsiella pneumoniae [10]): Active
inhibition [11]: < 10%
Activity (Escherichia coli [12]): inactive
MIC (Escherichia coli [13]): 2 µg/mL
fold change (FC) (Escherichia coli [14]): 16
MIC (Serratia marcescens): 4 µg/mL
Activity (Klebsiella pneumoniae [15]): inactive
MIC (Escherichia coli [16]): 128 µg/mL
Ratio [17]: 8
fold change (FC) (Escherichia coli [18]): 64
Activity (HepG2): < 10%
Ratio [19]: 4
MIC (Enterobacter cloacae [20]): 2 µg/mL
Activity (Pseudomonas aeruginosa [21]): inactive
fold change (FC) (Escherichia coli [22]): 256
inhibition [23]: < 10%
inhibition [24]: < 10%
IC50 [25]: 4 µM
Ratio [26]: 1
fold change (FC) (Escherichia coli [27]): 2
MIC (Klebsiella pneumoniae [28]): 0.5 µg/mL
MIC (Enterobacter cloacae [29]): 1 µg/mL
